This passage reports Activity results from ChEMBL document CHEMBL2074038 (J Pharmacol Exp Ther, 2003).

Structures are written as SMILES.

This data set deals with ATP-dependent translocase ABCB1 (Homo sapiens, UniProt P08183). The data set can be described thus: TP_TRANSPORTER: transepithelial transport in MDR1-expressing LLC-PK1 cells. The data set is classed as functional, cell-based. The settings on record: pig.
ATP-dependent translocase ABCB1, sequence (P08183 whole entry): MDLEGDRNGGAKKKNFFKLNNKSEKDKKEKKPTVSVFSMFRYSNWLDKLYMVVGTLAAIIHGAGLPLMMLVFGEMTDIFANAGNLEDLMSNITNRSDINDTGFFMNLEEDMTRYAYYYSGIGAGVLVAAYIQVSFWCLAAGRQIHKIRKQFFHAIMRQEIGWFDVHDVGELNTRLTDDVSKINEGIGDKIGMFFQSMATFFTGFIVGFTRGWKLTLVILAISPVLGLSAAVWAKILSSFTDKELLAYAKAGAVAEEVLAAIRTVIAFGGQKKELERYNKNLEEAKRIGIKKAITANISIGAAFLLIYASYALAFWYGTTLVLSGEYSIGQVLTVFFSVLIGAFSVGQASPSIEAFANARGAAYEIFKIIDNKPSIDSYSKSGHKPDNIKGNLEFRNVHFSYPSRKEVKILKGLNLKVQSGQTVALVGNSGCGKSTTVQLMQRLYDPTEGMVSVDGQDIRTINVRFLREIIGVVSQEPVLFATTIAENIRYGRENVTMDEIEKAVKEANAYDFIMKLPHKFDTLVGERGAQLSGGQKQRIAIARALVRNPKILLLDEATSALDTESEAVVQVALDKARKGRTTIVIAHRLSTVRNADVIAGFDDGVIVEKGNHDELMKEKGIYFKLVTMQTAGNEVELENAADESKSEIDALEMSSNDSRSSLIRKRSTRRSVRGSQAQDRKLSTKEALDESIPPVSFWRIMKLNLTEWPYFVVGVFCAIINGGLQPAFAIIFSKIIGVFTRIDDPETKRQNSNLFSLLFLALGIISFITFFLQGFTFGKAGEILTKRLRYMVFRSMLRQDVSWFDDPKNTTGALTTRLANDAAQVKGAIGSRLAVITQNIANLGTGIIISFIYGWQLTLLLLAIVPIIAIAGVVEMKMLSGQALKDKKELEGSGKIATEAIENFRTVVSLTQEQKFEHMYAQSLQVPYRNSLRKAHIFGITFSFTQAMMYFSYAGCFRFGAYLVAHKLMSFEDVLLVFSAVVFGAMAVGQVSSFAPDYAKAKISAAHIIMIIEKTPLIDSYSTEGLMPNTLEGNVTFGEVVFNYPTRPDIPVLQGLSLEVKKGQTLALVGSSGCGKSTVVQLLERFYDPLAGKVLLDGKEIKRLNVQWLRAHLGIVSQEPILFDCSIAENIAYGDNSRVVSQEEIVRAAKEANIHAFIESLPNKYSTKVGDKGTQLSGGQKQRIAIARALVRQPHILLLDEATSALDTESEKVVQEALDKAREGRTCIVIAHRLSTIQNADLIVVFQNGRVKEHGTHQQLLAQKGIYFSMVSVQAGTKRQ

Consider `CC[C@]1(O)C[C@@H]2CN(CCc3c([nH]c4ccccc34)[C@@](C(=O)OC)(c3cc4c(cc3OC)N(C)[C@H]3[C@@](O)(C(=O)OC)[C@H](OC(C)=O)[C@]5(CC)C=CCN6CC[C@]43[C@@H]65)C2)C1` [VINBLASTINE], for which the Activity entry is “substrate [+]”.

Turning to `CCn1nc(Cc2ccccc2)cc1C1CCN(Cc2ccc(C3(N(C)[C@@H](C(=O)O)C(C)C)CCCC3)cc2F)CC1`, the Activity entry was “substrate [+]”.
